Measured values reported in patent US12077503B2, “Substituted cyclic amides and their use as herbicides” (FMC CORPORATION, priority 2015, dated 2024).

Legend:
Format in all cases: in vivo
[1] = system: ryegrass, Italian (Italian ryegrass, Lolium multiflorum); test: Test A postemergence; conditions: Lolium multiflorum, post-emergence, 240 h, read-out: Ryegrass, Italian plant response rating (0 to 100 scale)
Outline: (§1)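 Seeds sprayed preemergence with a directed soil spray, or plants at 2 to 10 cm height and one- to two-leaf stage sprayed postemergence, with test chemicals in a non-phytotoxic solvent mixture containing surfactant, in loam soil–sand blend. Injury rated visually against untreated controls after about 10 d in greenhouse, 0 (no effect) to 100 (complete control).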

[2] = system: pigweed (Amaranthus retroflexus); test: Test A postemergence; conditions: Amaranthus retroflexus, post-emergence, 240 h, read-out: Pigweed plant response rating (0 to 100 scale)
Outline: as §1

[3] = system: barnyardgrass (Echinochloa crus-galli); test: Test A postemergence; conditions: Echinochloa crus-galli, post-emergence, 240 h, read-out: Barnyardgrass plant response rating (0 to 100 scale)
Outline: as §1

[4] = system: giant foxtail (Setaria faberii); test: Test A postemergence; conditions: Setaria faberi, post-emergence, 240 h, read-out: Foxtail, Giant plant response rating (0 to 100 scale)
Outline: as §1

corn (Zea mays) = test: Test A postemergence; conditions: Zea mays, post-emergence, 240 h, read-out: Corn plant response rating (0 to 100 scale)
Outline: as §1

[5] = system: blackgrass (Alopecurus myosuroides); test: Test A postemergence; conditions: Alopecurus myosuroides, post-emergence, 240 h, read-out: Blackgrass plant response rating (0 to 100 scale)
Outline: as §1

[6] = system: ragweed (common ragweed, Ambrosia elatior); test: Test A postemergence; conditions: Ambrosia artemisiifolia, post-emergence, 240 h, read-out: Ragweed plant response rating (0 to 100 scale)
Outline: as §1

[7] = system: wheat (Triticum aestivum); test: Test A postemergence; conditions: Triticum aestivum, post-emergence, 240 h, read-out: Wheat plant response rating (0 to 100 scale)
Outline: as §1

[8] = system: Galium (catchweed bedstraw, Galium aparine); test: Test A postemergence; conditions: Galium, post-emergence, 240 h, read-out: Galium plant response rating (0 to 100 scale)
Outline: as §1

Kochia (Kochia scoparia) [9] = test: Test A postemergence; conditions: Bassia scoparia, post-emergence, 240 h, read-out: Kochia plant response rating (0 to 100 scale)
Outline: as §1

[10] = system: sedge, umbrella (small-flower umbrella sedge, Cyperus difformis); test: Test B flooded paddy test; conditions: Cyperus difformis, 250 g ai/ha, Flood; 0 to 100 scale where 0 is no effect and 100 is complete control; read-out: Sedge, Umbrella plant response rating
Outline: (§2)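 Plants at 2-leaf stage flooded to 3 cm above soil, with compounds applied directly to paddy water and that depth maintained. Plants kept in greenhouse 13–15 d. Visual rating versus controls on a 0 (no effect) to 100 (complete control) scale.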

rice (Oryra sativa) = test: Test B flooded paddy test; conditions: Oryza sativa, 250 g ai/ha, Flood; 0 to 100 scale where 0 is no effect and 100 is complete control; read-out: Rice plant response rating
Outline: as §2

[11] = system: barnyardgrass (Echinochloa crus-galli); test: Test B flooded paddy test; conditions: Echinochloa crus-galli, 250 g ai/ha, Flood; 0 to 100 scale where 0 is no effect and 100 is complete control; read-out: Barnyardgrass plant response rating
Outline: as §2

[12] = system: ducksalad (Heteranthera limosa); test: Test B flooded paddy test; conditions: Heteranthera limosa, 250 g ai/ha, Flood; 0 to 100 scale where 0 is no effect and 100 is complete control; read-out: Ducksalad plant response rating
Outline: as §2

[13] = system: ryegrass, Italian (Italian ryegrass, Lolium multiflorum); test: Test A preemergence; conditions: Lolium multiflorum, pre-emergence, 240 h, 0 to 100 scale where 0 is no effect and 100 is complete control, read-out: Ryegrass, Italian plant response rating
Outline: as §1

[14] = system: pigweed (Amaranthus retroflexus); test: Test A preemergence; conditions: Amaranthus retroflexus, pre-emergence, 240 h, 0 to 100 scale where 0 is no effect and 100 is complete control, read-out: Pigweed plant response rating
[15] = system: barnyardgrass (Echinochloa crus-galli); test: Test A preemergence; conditions: Echinochloa crus-galli, pre-emergence, 240 h, 0 to 100 scale where 0 is no effect and 100 is complete control, read-out: Barnyardgrass plant response rating
Outline: as §1

[16] = system: giant foxtail (Setaria faberii); test: Test A preemergence; conditions: Setaria faberi, pre-emergence, 240 h, 0 to 100 scale where 0 is no effect and 100 is complete control, read-out: Foxtail, Giant plant response rating
Outline: as §1

[17] = system: ragweed (common ragweed, Ambrosia elatior); test: Test A preemergence; conditions: Ambrosia artemisiifolia, pre-emergence, 240 h, 0 to 100 scale where 0 is no effect and 100 is complete control, read-out: Ragweed plant response rating
Outline: as §1

Kochia (Kochia scoparia) [18] = test: Test A preemergence; conditions: Bassia scoparia, pre-emergence, 240 h, 0 to 100 scale where 0 is no effect and 100 is complete control, read-out: Kochia plant response rating
Outline: as §1

[19] = 125 g ai/ha, postemergence, visual injury vs untreated controls after approx. 10 d, 0 = no effect, 100 = complete control
[20] = Postemergence, 31 g ai/ha, 0 is no effect, 100 is complete control
[21] = 125 g ai/ha, preemergence, visual injury rating, approximately 10 d

`Cc1ccc([C@H]2CN(C)C(=O)[C@@H]2C(=O)Nc2cccc(C#N)c2F)cc1` [Compound 1188] was tested, and the pest or weed control at 125 g/ha [1, 19] was 40%, the pest or weed control at 31 g/ha [1, 20] was 0% and the pest or weed control at 125 g/ha [2, 19] was 20%. For the same compound, the pest or weed control at 31 g/ha [2, 20] was 0%, the pest or weed control at 125 g/ha [3, 19] was 100% and the pest or weed control at 31 g/ha [3, 20] was 70%. The pest or weed control at 125 g/ha [4, 19] was 80%, the pest or weed control at 31 g/ha [4, 20] was 70% and the plant injury at 125 g/ha (corn (Zea mays); [19]) was 50%. It also gave a plant injury at 31 g/ha (corn (Zea mays); [20]) of 0%, a pest or weed control at 125 g/ha [5, 19] of 70% and a pest or weed control at 31 g/ha [5, 20] of 30%. The pest or weed control at 125 g/ha [6, 19] was 40%, the pest or weed control at 31 g/ha [6, 20] was 0% and the plant injury at 125 g/ha [7, 19] was 40%. It also gave a plant injury at 31 g/ha [7, 20] of 0%, a pest or weed control at 125 g/ha [8, 19] of 60% and a pest or weed control at 31 g/ha [8, 20] of 50%. For the same compound, the pest or weed control at 125 g/ha (Kochia (Kochia scoparia) [9]; [19]) was 50%, the pest or weed control at 31 g/ha (Kochia (Kochia scoparia) [9]; [20]) was 0% and the pest or weed control at 250 g/ha [10] was 0%. It also gave a pest or weed control at 250 g/ha (rice (Oryra sativa)) of 15%, a pest or weed control at 250 g/ha [11] of 65% and a pest or weed control at 250 g/ha [12] of 100%. For the same compound, the pest or weed control at 31 g/ha ([13]; 31 g ai/ha, Preemergence) was 0%, the pest or weed control at 125 g/ha [13, 21] was 60% and the pest or weed control at 31 g/ha ([14]; 31 g ai/ha, Preemergence) was 40%. For the same compound, the pest or weed control at 125 g/ha [14, 21] was 80%, the pest or weed control at 31 g/ha ([15]; 31 g ai/ha, Preemergence) was 90% and the pest or weed control at 125 g/ha [15, 21] was 100%. It also gave a pest or weed control at 31 g/ha ([16]; 31 g ai/ha, Preemergence) of 90%, a pest or weed control at 125 g/ha [16, 21] of 100% and a pest or weed control at 31 g/ha ([17]; 31 g ai/ha, Preemergence) of 30%. For the same compound, the pest or weed control at 125 g/ha [17, 21] was 70%, the pest or weed control at 31 g/ha (Kochia (Kochia scoparia) [18]; 31 g ai/ha, Preemergence) was 60% and the pest or weed control at 125 g/ha (Kochia (Kochia scoparia) [18]; [21]) was 80%.
